According to patent publication US11993581B2, “Pyridazine compounds for inhibiting Nav1.8” (Lieber Institute, Inc., priority 2018, dated 2024):

Biological target: T1, human Nav1.8 (hNav1.8) ion channel (Homo sapiens, UniProt Q9Y5Y9)
T1 construct: expressed in transfected cells
Assay: Nav1.8 inhibition, estimated IC50 (Nav1.8 fluorescence, PatchXpress and/or IonFlux HT automated patch clamp assay)
Type: cell-based
Settings: HEK293 cells stably expressing hNav1.8; determined using one or more of the described methods; read-out: Activity range (estimated IC50)
Procedure: The ability of pyridine carboxamide derivatives exemplified above to inhibit the Nav1.8 channel was determined using one or more of the methods described below.
HEK Nav1.8 β1/β2 Stably Expressing Cell Line
A HEK293 cell line stably expressing the human Nav1.8 (hNav1.8) ion channel with β1/β2 subunits was constructed. The cell line is suitable for IC50 determination in fluorescence and electrophysiological based assays. It is also suitable to conduct mechanism of action pharmacology studies in electrophysiological assays. HEK293 Nav1.8 cells are grown as adherent monolayers in DMEM/high glucose media, 10% fetal bovine serum, Na pyruvate (2 mM), Hepes (10 mM) with selection agents G418 (400 mg/L) and puromycin (0.5 mg/L) at 37 degrees C., 10% CO2.
Nav1.8 Fluorescence Inhibition Assay
Compounds were made up to or supplied as a 10-mM stock solution using DMSO as the vehicle. Concentration-response curves were generated using a Matrix multichannel pipettor. Compound source plates were made by diluting 10 mM compound stocks to create 500 μM (100×) solutions in DMSO in 96-well v-bottom plates. Compounds were then serially diluted in 100% DMSO to generate a 5 point, 4-fold dilution scheme dose response curve. 2 μL of the 100× dose response curves were then added to preincubation and stimulation assay plates. 100 μL of pre-incubation buffer and 200 μl of stimulation buffer was then added to the plates resulting in a final assay test concentration range of 5 μM to 0.02 μM with a final DMSO concentration of 1%.
On the day of assay, plates were washed to remove cell culture media using 2K EBSS buffer (135 mM NaCl, 2 mM KCl, 5 mM Glucose, 2 mM CaCl2, 1 mM MgCl2, 10 mM HEPES, pH 7.4). The Na-sensitive fluorescent dye, Asante Natrium Green-2 (ANG-2) was incubated for 60 min to allow equilibration and then washed with 2K EBSS. Plates were then transferred to a fluorescence plate reader (FLIPR™, Molecular Devices) for fluorescence measurement using an excitation wavelength of 490 nm and an emission wavelength of 565 nm. Compounds were pre-incubated for 5 min at final test concentration in the presence of ouabain (30 μM) to inhibit Na+ efflux through Na+/K+ exchanger. Following the pre-incubation phase, hNav1.8 channels were stimulated with 10 μM of the pyrethroid deltamethrin to prevent channel inactivation. The assay was run for 15 minutes with vehicle and 30 μM tetracaine serving as negative and positive controls, respectively. The peak change in fluorescence relative to negative and positive control wells was calculated and fit with a logistic equation to determine IC50.
PatchXpress Nav1.8 Inhibition Assay
HEK-Nav1.8 β1/β2 cells were recorded in whole cell patch-clamp using the PatchXpress automated patch clamp platforms (Molecular Devices). Cell suspensions were obtained by trypsinization of adherent monolayers, followed by gentle rocking for minimally 30 min. Compounds were prepared from 10 mM DMSO stocks.
Nav1.8 channel variants were evaluated using Protocol 1 in which cells were initially voltage clamped at a holding potential of −100 mV to maintain Nav1.8 in a closed resting state. After current amplitude becomes stable, the mid-point voltage of steady state inactivation was determined for each cell using a series of 5 sec conditioning steps to increasingly depolarized voltages (−100 to 0 mV) The holding potential was then reset to a voltage that produces ˜50% inactivation (Vhalf-set automatically via PatchXpress scripts) so that closed and inactivated channel inhibition could be assessed. Protocol 1 was run at a frequency of 0.1 Hz until current amplitude is steady (automatically determined by PatchXpress scripts). The effect of test reagent on Nav current amplitude was monitored using custom PatchXpress stability scripts which determines the timing of compound addition and washout.
Data were processed and analyzed using DataXpress 2.0 (Molecular Devices). […]

T1 sequence (Q9Y5Y9 whole entry): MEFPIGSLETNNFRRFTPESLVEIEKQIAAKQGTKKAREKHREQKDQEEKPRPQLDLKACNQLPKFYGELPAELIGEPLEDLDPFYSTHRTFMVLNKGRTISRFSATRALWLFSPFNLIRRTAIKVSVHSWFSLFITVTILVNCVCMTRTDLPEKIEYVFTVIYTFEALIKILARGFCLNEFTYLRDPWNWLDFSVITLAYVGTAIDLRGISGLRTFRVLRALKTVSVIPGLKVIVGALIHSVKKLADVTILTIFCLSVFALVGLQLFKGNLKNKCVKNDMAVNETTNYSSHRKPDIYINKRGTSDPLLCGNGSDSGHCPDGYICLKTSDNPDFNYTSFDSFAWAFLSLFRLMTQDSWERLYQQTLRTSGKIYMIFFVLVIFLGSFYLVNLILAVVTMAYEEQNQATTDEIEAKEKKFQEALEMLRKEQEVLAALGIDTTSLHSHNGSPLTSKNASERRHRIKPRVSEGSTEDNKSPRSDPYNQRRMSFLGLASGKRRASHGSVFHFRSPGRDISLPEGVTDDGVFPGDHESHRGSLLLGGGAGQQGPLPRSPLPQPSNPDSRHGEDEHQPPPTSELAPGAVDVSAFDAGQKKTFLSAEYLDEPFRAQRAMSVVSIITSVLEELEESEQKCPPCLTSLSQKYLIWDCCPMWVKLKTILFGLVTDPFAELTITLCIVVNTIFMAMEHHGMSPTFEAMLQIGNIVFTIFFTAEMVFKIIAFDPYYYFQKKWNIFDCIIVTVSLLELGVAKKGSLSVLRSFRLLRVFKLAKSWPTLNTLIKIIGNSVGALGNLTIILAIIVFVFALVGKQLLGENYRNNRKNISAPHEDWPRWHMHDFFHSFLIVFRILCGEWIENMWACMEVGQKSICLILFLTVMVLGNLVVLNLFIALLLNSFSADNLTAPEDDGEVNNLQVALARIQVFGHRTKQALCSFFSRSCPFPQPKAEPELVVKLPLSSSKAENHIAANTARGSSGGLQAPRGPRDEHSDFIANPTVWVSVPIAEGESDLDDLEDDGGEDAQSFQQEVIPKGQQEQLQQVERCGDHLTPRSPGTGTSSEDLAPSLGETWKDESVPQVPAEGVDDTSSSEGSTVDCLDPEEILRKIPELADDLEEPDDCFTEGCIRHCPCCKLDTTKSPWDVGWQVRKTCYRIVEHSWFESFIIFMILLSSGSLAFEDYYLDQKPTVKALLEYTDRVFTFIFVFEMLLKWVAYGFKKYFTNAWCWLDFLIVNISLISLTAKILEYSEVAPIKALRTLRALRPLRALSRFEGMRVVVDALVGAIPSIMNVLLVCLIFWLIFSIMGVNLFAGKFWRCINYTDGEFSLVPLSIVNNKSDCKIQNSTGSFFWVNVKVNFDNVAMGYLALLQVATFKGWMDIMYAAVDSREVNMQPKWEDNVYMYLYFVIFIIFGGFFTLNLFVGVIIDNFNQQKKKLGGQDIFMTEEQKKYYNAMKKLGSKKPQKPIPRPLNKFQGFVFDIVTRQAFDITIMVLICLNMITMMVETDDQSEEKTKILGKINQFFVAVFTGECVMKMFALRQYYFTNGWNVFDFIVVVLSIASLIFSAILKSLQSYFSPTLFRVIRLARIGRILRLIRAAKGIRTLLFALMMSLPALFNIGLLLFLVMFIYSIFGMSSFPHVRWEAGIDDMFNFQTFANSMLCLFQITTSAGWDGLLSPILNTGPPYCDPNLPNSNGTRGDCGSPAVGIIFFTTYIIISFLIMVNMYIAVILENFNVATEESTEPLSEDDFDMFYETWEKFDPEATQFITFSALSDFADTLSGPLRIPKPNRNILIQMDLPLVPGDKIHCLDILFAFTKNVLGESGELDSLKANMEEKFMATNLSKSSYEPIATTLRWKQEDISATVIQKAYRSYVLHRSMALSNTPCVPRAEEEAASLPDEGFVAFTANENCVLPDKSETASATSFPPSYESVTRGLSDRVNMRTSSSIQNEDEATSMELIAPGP
T1 sequence (Q07699 19-218 partner): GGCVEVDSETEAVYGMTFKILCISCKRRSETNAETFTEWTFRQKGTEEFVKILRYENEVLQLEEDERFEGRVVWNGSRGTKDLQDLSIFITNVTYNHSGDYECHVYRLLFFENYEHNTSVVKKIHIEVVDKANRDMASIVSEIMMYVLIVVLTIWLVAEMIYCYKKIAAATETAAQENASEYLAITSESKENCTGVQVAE

Row | SMILES | IC50
1 | O=C(NCc1cccnc1N1CCCC1)c1cnnc(-c2ccc(OCC3CC3)c(Cl)c2)c1 [Example 29, 6-[3-chloro-4-(cyclopropylmethoxy)phenyl]-N-[(2-pyrrolidin-1-yl-3-pyridyl)methyl]pyridazine-4-carboxamide] | < 500 nM
2 | O=C(NCc1cccnc1N1CCCCC1)c1cnnc(-c2ccc(OCC3CC3)c(Cl)c2)c1 [Example 30, 6-[3-chloro-4-(cyclopropylmethoxy)phenyl]-N-[[2-(1-piperidyl)-3-pyridyl]methyl]pyridazine-4-carboxamide] | < 500 nM
3 | O=C(NCc1cc(F)cnc1N1CCOCC1)c1cnnc(-c2ccc(OCC3CC3)c(Cl)c2)c1 [Example 31, 6-[3-chloro-4-(cyclopropylmethoxy)phenyl]-N-[(5-fluoro-2-morpholino-3-pyridyl)methyl]pyridazine-4-carboxamide] | < 500 nM
4 | O=C(NCc1cncnc1N1CCOCC1)c1cnnc(-c2ccc(OCC3CC3)c(Cl)c2)c1 [Example 32, 6-[3-chloro-4-(cyclopropylmethoxy)phenyl]-N-[(4-morpholinopyrimidin-5-yl)methyl]pyridazine-4-carboxamide] | > 1000 nM
5 | O=C(NCc1nccnc1N1CCOCC1)c1cnnc(-c2ccc(OCC3CC3)c(Cl)c2)c1 [Example 33, 6-[3-chloro-4-(cyclopropylmethoxy)phenyl]-N-[(3-morpholinopyrazin-2-yl)methyl]pyridazine-4-carboxamide] | < 500 nM
6 | O=C(NCc1cccnc1N1C[C@@H]2C[C@H]1CO2)c1cnnc(-c2ccc(OCC3CC3)c(Cl)c2)c1 [Example 34, 6-[3-chloro-4-(cyclopropylmethoxy)phenyl]-N-[[2-[(1S,4S)-2-oxa-5-azabicyclo[2.2.1]heptan-5-yl]-3-pyridyl]methyl]pyridazine-4-carboxamide] | < 500 nM
7 | CS(=O)(=O)c1ccccc1CNC(=O)c1cnnc(-c2ccc(OCC3CC3)c(Cl)c2)c1 [Example 35, 6-[3-chloro-4-(cyclopropylmethoxy)phenyl]-N-[(2-methylsulfonylphenyl)methyl]pyridazine-4-carboxamide] | 500 to 1000 nM
8 | COc1ccccc1CNC(=O)c1cnnc(-c2ccc(OCC3CC3)c(Cl)c2)c1 [Example 36, 6-[3-chloro-4-(cyclopropylmethoxy)phenyl]-N-[(2-methoxyphenyl)methyl]pyridazine-4-carboxamide] | < 500 nM
9 | Cc1ccccc1CNC(=O)c1cnnc(-c2ccc(OCC3CC3)c(Cl)c2)c1 [Example 37, 6-[3-chloro-4-(cyclopropylmethoxy)phenyl]-N-(o-tolylmethyl)pyridazine-4-carboxamide] | < 500 nM
10 | [2H]C1([2H])OC([2H])([2H])C([2H])([2H])N(c2ncccc2CNC(=O)c2cnnc(-c3ccc(OCC4CC4)c(Cl)c3)c2)C1([2H])[2H] [Example 38, 6-[3-chloro-4-(cyclopropylmethoxy)phenyl]-N-[[2-(2,2,3,3,5,5,6,6-octadeuteriomorpholin-4-yl)-3-pyridyl]methyl]pyridazine-4-carboxamide] | < 500 nM
11 | O=C(NCc1cccnc1N1CCOC(C(F)(F)F)C1)c1cnnc(-c2ccc(OCC3CC3)c(Cl)c2)c1 (stereo not drawn) [Example 39, 6-[3-chloro-4-(cyclopropylmethoxy)phenyl]-N-[[2-[2-(trifluoromethyl)morpholin-4-yl]-3-pyridyl]methyl]pyridazine-4-carboxamide] | 500 to 1000 nM
12 | O=C(NCc1cncc(F)c1)c1cnnc(-c2ccc(OCC3CC3)c(Cl)c2)c1 [Example 40, 6-[3-chloro-4-(cyclopropylmethoxy)phenyl]-N-[(5-fluoro-3-pyridyl)methyl]pyridazine-4-carboxamide] | < 500 nM
13 | CCC1CN(c2ncccc2CNC(=O)c2cnnc(-c3ccc(OCC4CC4)c(Cl)c3)c2)CCO1 (stereo not drawn) [Example 41, 6-[3-chloro-4-(cyclopropylmethoxy)phenyl]-N-[[2-(2-ethylmorpholin-4-yl)-3-pyridyl]methyl]pyridazine-4-carboxamide] | < 500 nM
14 | CC(C)Oc1ncccc1CNC(=O)c1cnnc(-c2ccc(OCC3CC3)c(Cl)c2)c1 [Example 42, 6-[3-chloro-4-(cyclopropylmethoxy)phenyl]-N-[(2-isopropoxy-3-pyridyl)methyl]pyridazine-4-carboxamide] | < 500 nM
15 | COc1ncccc1C(C)NC(=O)c1cnnc(-c2ccc(OCC3CC3)c(Cl)c2)c1 (stereo not drawn) [Example 43, 6-(3-chloro-4-(cyclopropylmethoxy)phenyl)-N-(1-(2-methoxypyridin-3-yl)ethyl)pyridazine-4-carboxamide] | 500 to 1000 nM
16 | O=C(NCc1cccnc1N1CCOCC1)c1cnnc(-c2ccc(OCC3CCC3)c(Cl)c2)c1 [Example 44, 6-[3-chloro-4-(cyclobutylmethoxy)phenyl]-N-[(2-morpholino-3-pyridyl)methyl]pyridazine-4-carboxamide] | < 500 nM
17 | CC(Oc1ccc(-c2cc(C(=O)NCc3cccnc3N3CCOCC3)cnn2)cc1Cl)C1CC1 (stereo not drawn) [Example 45, 6-[3-chloro-4-(1-cyclopropylethoxy)phenyl]-N-[(2-morpholino-3-pyridyl)methyl]pyridazine-4-carboxamide] | < 500 nM
18 | O=C(NCc1cccnc1N1CCOCC1)c1cnnc(-c2ccc(OCC3CC3)c(F)c2)c1 [Example 46, 6-[4-(cyclopropylmethoxy)-3-fluoro-phenyl]-N-[(2-morpholino-3-pyridyl)methyl]pyridazine-4-carboxamide] | < 500 nM
19 | O=C(NCc1cccnc1N1CCOCC1)c1cnnc(-c2ccc(OCC3CC3)c(C(F)(F)F)c2)c1 [Example 47, 6-[4-(cyclopropylmethoxy)-3-(trifluoromethyl)phenyl]-N-[(2-morpholino-3-pyridyl)methyl]pyridazine-4-carboxamide] | < 500 nM
20 | COc1ncccc1CNC(=O)c1cnnc(-c2ccc(OCC3CC3)cc2)c1 [Example 48, 6-[4-(cyclopropylmethoxy)phenyl]-N-[(2-methoxy-3-pyridyl)methyl]pyridazine-4-carboxamide] | > 1000 nM
21 | O=C(NCc1cc(F)cnc1N1CCOCC1)c1cnnc(-c2ccc(OCC3CC3)cc2)c1 [Example 49, 6-[4-(cyclopropylmethoxy)phenyl]-N-[(5-fluoro-2-morpholino-3-pyridyl)methyl]pyridazine-4-carboxamide] | > 1000 nM
22 | CC1COCCN1c1ncccc1CNC(=O)c1cnnc(-c2ccc(OCC3CC3)cc2)c1 (stereo not drawn) [Example 50, 6-[4-(cyclopropylmethoxy)phenyl]-N-[[2-(3-methylmorpholin-4-yl)-3-pyridyl]methyl]pyridazine-4-carboxamide] | > 1000 nM
23 | O=C(NCc1cccnc1N1CC2(COC2)C1)c1cnnc(-c2ccc(OCC3CC3)cc2)c1 [Example 52, 6-[4-(cyclopropylmethoxy)phenyl]-N-[[2-(2-oxa-6-azaspiro[3.3]heptan-6-yl)-3-pyridyl]methyl]pyridazine-4-carboxamide] | > 1000 nM
24 | N#Cc1ccc(-c2cc(C(=O)NCc3cc(F)cnc3N3CCOCC3)cnn2)cc1 [Example 53, 6-(4-cyanophenyl)-N-[(5-fluoro-2-morpholino-3-pyridyl)methyl]pyridazine-4-carboxamide] | 500 to 1000 nM
25 | O=C(NCc1ccccc1N1CCOCC1)c1cnnc(-c2ccc(Cl)cc2)c1 [Example 55, 6-(4-chlorophenyl)-N-[(2-morpholinophenyl)methyl]pyridazine-4-carboxamide] | < 500 nM
26 | O=C(NCc1ccccc1N1CCOCC1)c1cnnc(-c2ccc(OC(F)(F)F)cc2)c1 [Example 57, 6-[4-(trifluoromethoxy)phenyl]-N-[(2-morpholinophenyl)methyl]pyridazine-4-carboxamide] | < 500 nM
27 | N#Cc1ccc(-c2cc(C(=O)NCc3ccccc3N3CCOCC3)cnn2)cc1 [Example 58, 6-(4-cyanophenyl)-N-[(2-morpholinophenyl)methyl]pyridazine-4-carboxamide] | < 500 nM
